Data set [1] deals with Aspergillus fumigatus MCC 1046. As to the kind of experiment: Antifungal susceptibility by microbroth dilution (CLSI). It is filed as cell-based. Particulars: Table 1, 48 h, >90% inhibition of growth. How it is done:
(§1) The synthesized compounds were evaluated for antifungal susceptibility by microbroth dilution method according to the recommendations of the Clinical Laboratory Standards Institute (CLSI 2008). Briefly, appropriate amount of compounds were dissolved in dimethyl sulfoxide to get 100× final strength. The stock was then diluted 1:50 in RPMI/YPG medium and 200 μl from this was added to the first row of a 96-well microtitre plate. The compounds were serially diluted two fold in successive wells to get a range of 1-128 μg/ml. Fungal yeast cells (˜2×10^3 cfu/mL), freshly grown in YPG broth in logarithmic phase, were suspended in the medium and inoculated (100 μl) in the wells of the plate. For filamentous fungi, 2×10^4 spores/mL were added. The microtitre plate was incubated for 48 h, and the absorbance was measured at 600 nm by using microtitre plate reader to assess cell growth.
On the technique in general: Broth dilution looks for growth in wells or tubes with falling amounts of substance.

Data set [2] deals with Aspergillus niger ATCC 10578. The data set is described as above. The class given is cell-based. Particulars: Table 1, 48 h, >90% inhibition of growth. The protocol:
as §1

The subject of data set [3] is Candida albicans ATCC 10231. The data set is described as above. Particulars: Table 1, 48 h, >90% inhibition of growth. The class given is cell-based. The protocol: as §1
Data set [4] deals with Candida albicans ATCC 24433. Described as above. The class given is cell-based. Particulars: Table 1, 48 h, >90% inhibition of growth, range 1-128 μg/ml. The protocol: as §1
The subject of data set [5] is Candida glabrata NCYC 388. The description is as above. Particulars: Table 1, 48 h, >90% inhibition of growth. It is filed as cell-based. The protocol: as §1
Data set [6] concerns Cryptococcus neoformans ATCC 34664. Described as above. Particulars: Table 1, 48 h, >90% inhibition of growth. It is filed as cell-based. The protocol: as §1
The subject of a further data set is pathogenic fungi. The data set can be described thus: Antifungal activity, overall assessment of the microbroth dilution results. It is filed as cell-based. Particulars: based on the MIC results. How it is done: as §1
In data set [7] the test system is reactive oxygen species (ROS). As to the kind of experiment: ROS production using dichlorofluorescin diacetate dye. The class given is cell-based. Particulars: C. albicans ATCC 24433, dichlorofluorescin diacetate dye. How it is done: Apart from lanosterol 14 a-demethylase inhibition, few azoles like miconazole are known to exert their antifungal action by reactive oxygen species (ROS) generation. Therefore ROS production in C. albicans ATCC 24433 was evaluated for these compounds by using dichlorofluorescin diacetate dye. […] ROS can damage a wide range of molecules, including nucleic acids, proteins and lipids, can cause apoptosis, necrotic death and with this wide range of targets it is difficult to determine which events lead to loss of viability of cells following damage.

The subject of a further data set is ergosterol. The data set can be described thus: Effect of the compounds on sterol profile (spectrophotometric ergosterol quantitation). Particulars: for ergosterol depletion (sterol profile, height of absorbance peaks 220-300 nm): C. albicans ATCC 24433, 24 h, 0.5 MIC and MIC of the lead compounds; for inhibition of lanosterol 14 α-demethylase enzyme (concluded from ergosterol depletion): C. albicans ATCC 24433 sterol profile. The class given is cell-based, C. albicans ATCC 24433. The protocol:
Inhibition of lanosterol 14 α-demethylase by azoles results in depletion of ergosterol. The depletion can be quantified by spectrophotometry. Briefly, Overnight grown C. albicans ATCC 24433 (1×10^6 cfu/ml) cells were inoculated in a series of flasks containing 50 ml of Yeast extract Peptone Glucose (YPG) broth containing […] of fluconazole per ml as well as 0.5 MIC and MIC of the lead compounds. The cultures were incubated for 24 h with shaking at 30° C. The stationary-phase cells were harvested by centrifugation […] and washed once with sterile distilled water. The net wet weight of the cell pellet was determined. Three milliliters of 25% alcoholic potassium hydroxide solution (25 g of […] and 35 ml of sterile distilled water, brought to 100 ml with 100% ethanol), was added to 125 mg of pellet and vortex mixed for 1 min. Cell suspensions were transferred to sterile borosilicate glass screw-cap tubes and were incubated in an 85° C. water bath for 1 h. Following incubation, tubes were allowed to cool to room temperature. Sterols were then extracted by addition of a mixture of 1 ml of sterile distilled water and 3 ml of n-heptane followed by vigorous vortex mixing for 3 min. The heptane layer was transferred to a clean borosilicate glass screw-cap tube. The sterol extract was scanned spectrophotometrically between 220 and 300 nm with a Spectrophotometer.

[8] abbreviates: Aspergillus fumigatus, MCC1046, read-out: MIC.
Where [9] appears, read: Aspergillus niger, ATCC10578, read-out: MIC.
Where [10] appears, read: Candida albicans, ATCC10231, read-out: MIC.
The mark [11] stands for this setting: Candida albicans, ATCC24433, read-out: MIC.
[12] abbreviates: Nakaseomyces glabratus, NCYC388, read-out: MIC.
[13] abbreviates: Cryptococcus neoformans, ATCC34664, read-out: MIC.

SMILES strings stand for the structures. ≈ marks a conversion by molar mass, not a printed value. Read-outs that look alike come from different tables or passages of the source.

In general, MIC refers to the smallest concentration in the dilution series that meets the test's criterion for growth inhibition. `CCC(O)(c1ccccc1)c1cn(-c2ccc(Cl)cc2O)nn1` (stereo not shown) [Compound 1db]: the MIC in data set [1] is above 128 µg/mL; in data set [2], above 128 µg/mL; in data set [3] it was 32 µg/mL (≈ 97 µM); in data set [4] it was 16 µg/mL (≈ 48.5 µM); in data set [5], 8 µg/mL (≈ 24.3 µM); in data set [6], 16 µg/mL (≈ 48.5 µM). Moreover, the “antifungal activity, overall assessment” value with pathogenic fungi is recorded as “promising molecules”.
With `CC(O)(Cc1cn(-c2cc(Cl)ccc2O)nn1)c1ccccc1` (stereo not shown) [Compound 2fa, 4-Chloro-2-(4-(2-hydroxy-2-phenylpropyl)-1H-1,2,3-triazol-1-yl)phenol], the MIC in [1] (setting [8]) is 8 µg/mL (≈ 24.3 µM); in data set [2] (setting [9]), above 128 µg/mL; in data set [3] (setting [10]) it was 16 µg/mL (≈ 48.5 µM); in data set [4] (setting [11]), 16 µg/mL (≈ 48.5 µM); in [5] (setting [12]) it was 8 µg/mL (≈ 24.3 µM); in [6] (setting [13]), 16 µg/mL (≈ 48.5 µM). In data set [7], the ROS generation result is on record as “dose dependent increase in ROS generation”. Besides, the “antifungal activity, overall assessment” value in the data set on pathogenic fungi was “promising molecules”.
For `Cc1cc(C)cc(C(O)c2cn(-c3ccc(Cl)cc3O)nn2)c1` (stereo not shown) [Compound 1ab, 5-Chloro-2-(4-((3,5-dimethylphenyl)(hydroxy)methyl)-1H-1,2,3-triazol-1-yl)phenol], the MIC was 32 µg/mL (≈ 97 µM) in data set [1] (setting [8]); above 128 µg/mL in data set [2] (setting [9]); 32 µg/mL (≈ 97 µM) in data set [3] (setting [10]); 32 µg/mL (≈ 97 µM) in [4] (setting [11]); 32 µg/mL (≈ 97 µM) in data set [5] (setting [12]); 32 µg/mL (≈ 97 µM) in data set [6] (setting [13]). In addition, in the data set with ergosterol, the “ergosterol depletion (sterol profile, height of absorbance peaks 220-300 nm)” value was “no ergosterol depletion was observed”. Besides, in data set [7], the ROS generation entry is given as “dose dependent increase in ROS generation”. Moreover, in the data set with pathogenic fungi, the “antifungal activity, overall assessment” value is on record as “promising molecules”.
Consider `CCC(O)(c1ccccc1)c1cn(-c2cc(Cl)ccc2O)nn1` (stereo not shown) [Compound 1da], for which the MIC in [1] is above 128 µg/mL; in data set [2], above 128 µg/mL; in data set [3], 16 µg/mL (≈ 48.5 µM); in data set [4], 16 µg/mL (≈ 48.5 µM); in [5] it was 8 µg/mL (≈ 24.3 µM); in data set [6], 16 µg/mL (≈ 48.5 µM). In the data set with ergosterol, the “ergosterol depletion (sterol profile, height of absorbance peaks 220-300 nm)” value is given as “no ergosterol depletion was observed”. Besides, in the data set on ergosterol, the “inhibition of lanosterol 14 α-demethylase enzyme (concluded from ergosterol depletion)” value is given as “potent inhibitors”. In addition, the ROS generation result in data set [7] was “dose dependent increase in ROS generation”. Further, the “antifungal activity, overall assessment” value in the data set with pathogenic fungi is reported as “promising molecules”.
The term melting point denotes the temperature, or range, at which the solid turns liquid. Regarding `CCC(O)(Cc1cn(-c2cc(Cl)ccc2O)nn1)c1ccccc1` (stereo not shown) [Compound 2ga, 4-Chloro-2-(4-(2-hydroxy-2-phenylbutyl)-1H-1,2,3-triazol-1-yl)phenol], the melting point fell in the range of 153 to 155 °C. Further, in data set [1] (setting [8]), the MIC was determined as 32 µg/mL (≈ 93.1 µM). In data set [2] (setting [9]), the MIC is above 128 µg/mL. In addition, the MIC in data set [3] (setting [10]) came out at 16 µg/mL (≈ 46.5 µM). Further, in [4] (setting [11]), the MIC is 16 µg/mL (≈ 46.5 µM). Further, the minimal inhibitory concentration (MIC) in [5] (setting [12]) was 8 µg/mL (≈ 23.3 µM). The MIC in data set [6] (setting [13]) was 16 µg/mL (≈ 46.5 µM). In addition, in the data set with ergosterol, the “inhibition of lanosterol 14 α-demethylase enzyme (concluded from ergosterol depletion)” value is “potent inhibitors”. For the same molecule, in the data set with pathogenic fungi, the “antifungal activity, overall assessment” value is on record as “promising molecules”.
In the case of `CCC(O)(Cc1cn(-c2ccc(Cl)cc2O)nn1)c1ccccc1` (stereo not shown) [Compound 2gb, 5-Chloro-2-(4-(2-hydroxy-2-phenylbutyl)-1H-1,2,3-triazol-1-yl)phenol], the melting point lay within 129 to 131 °C. Further, the MIC in data set [1] (setting [8]) was found to be 8 µg/mL (≈ 23.3 µM). Further, in [2] (setting [9]), the MIC is above 128 µg/mL. For the same molecule, in [3] (setting [10]), the minimum inhibitory concentration (MIC) was 16 µg/mL (≈ 46.5 µM). Further, the MIC in data set [4] (setting [11]) came out at 16 µg/mL (≈ 46.5 µM). Further, in [5] (setting [12]), the minimum inhibitory concentration (MIC) came out at 8 µg/mL (≈ 23.3 µM). In addition, in data set [6] (setting [13]), the MIC turned out to be 8 µg/mL (≈ 23.3 µM). Further, the “ergosterol depletion (sterol profile, height of absorbance peaks 220-300 nm)” value in the data set with ergosterol was “most effective”. Also, in the data set on pathogenic fungi, the “antifungal activity, overall assessment” value is “promising molecules”.

Values taken from patent US9981923B2, “1,2,3 Triazole antifungal agents and preparation thereof” (COUNCIL OF SCIENTIFIC & INDUSTRIAL RESEARCH, priority 2014, dated 2018).
